Assay results as given in patent US20060293249A1, “Porphyrin derivatives” (PhotoBiotics Limited, priority 2002, published 2006).
Read-outs that look alike come from different tables or passages of the source.

Tests used:
[1] = Solubility remark in synthesis; type: physicochemical
[2] = in toluene; known standard value; cited from earlier work
[3] = Determination of singlet oxygen quantum yields (phosphorescence at 1270 nm following laser excitation, relative to reference standard); type: physicochemical
Description: Air equilibrated solutions of the sensitisers were optically matched at the laser excitation wavelength along with that of the reference standard whose singlet oxygen quantum yield is known. Singlet oxygen generation is detected by its phosphorescence at 1270 nm following laser excitation. At each laser intensity the recorded phosphorescence trace was obtained by signal averaging 10 single shots. A linear regression between the signal amplitude and the laser intensity is carried out with the aim of calculating the slope of the straight line and since the gradient is proportional to the singlet oxygen quantum yield, by comparison with the gradient obtained for the standard, the singlet oxygen quantum yield for the sample can calculated using: φ=φstandard×(slopesample/slopestandard)×(absorptionsample/absorptionstandard)
This is a comparative method where the value obtained for φ is relative to that of a known standard. The quality of the results obtained are heavily dependent on the quality of the standard, which should be freshly prepared before measurements.

[4] = compounds known in the art; cited from earlier work

5-Nonane-10,15,20-triiodo-porphyrin [[18]]
solubility [1]: limited solubility

5-Pentane-10,15,20-triiodo-porphyrin [[30]]
solubility [1]: limited solubility

C[Si](C)(C)CCOC(=O)c1ccc(OCCCCCc2c3nc(c(I)c4ccc([nH]4)c(I)c4nc(c(I)c5ccc2[nH]5)C=C4)C=C3)cc1 [[9], 5-[5-(2′-(trimethylsilyl)ethyl-4-hydroxybenzoate)pentane]-10,15,20-triiodo-porphyrin]
solubility [1]: limited solubility

C=Cc1c(C)c2cc3nc(c4c5[n-]c(cc6nc(cc1[n-]2)C(C)=C6CC)c(C)c5C(=O)[C@@H]4C(=O)OC)[C@@H](CCC(=O)OC/C=C(\C)CCC[C@H](C)CCC[C@H](C)CCCC(C)C)[C@@H]3C.[Mg+2] [chlorophyll A]
singlet oxygen quantum yield of reference standard [2]: 0.6

Zinc5-[5-(2′-(trimethylsilyl)ethyl-4-hydroxybenzoate)pentane]-10,15,20-tri-2-ethynylpyridine-porphyrin [Compound [11]]
singlet oxygen quantum yield [3]: around 0.81
singlet oxygen quantum yield ([3]; in toluene): 0.8109

disulfonated aluminium phthalocyanine [AIPCS2]
singlet oxygen quantum yield [4]: 0.3
